Laboratory results from patent US5981583A (priority 1997, dated 1999).
Where two headings read alike, the source gives them in different places.

Key:
NF-κB [1] = type: cell-based, human
in vitro [2] = test: in vitro
NF-κB [3] = type: cell-based, human; remark: listed apart in the source
NF-κB [4] = type: cell-based
IκBa [5] = type: cell-based, human
p65 [6] = type: cell-based, human
c-Rel = type: cell-based
p50 = type: cell-based
NF-κB [7] = type: cell-based, human; remark: listed apart in the source
NF-κB [8] = type: biochemical
NF-κB [9] = type: cell-based, human; remark: listed apart in the source
[10] = test system: IκBa promoter linked to the CAT gene; type: cell-based
NF-κB [11] = type: cell-based; remark: listed apart in the source
p65 [12] = type: cell-based, human; remark: listed apart in the source
IκBa [13] = type: cell-based, human; remark: listed apart in the source
in vitro [14] = settings: human, u937 cells
NF-κB [15] = type: cell-based, human; remark: listed apart in the source
TFII D = type: cell-based; settings: 25 μg/ml, 2 hours
NF-κB [16] = type: biochemical, human
Oct-1 = type: cell-based; settings: 25 μg/ml, 2 hours
AP-1 = type: cell-based; settings: 25 μg/ml, 2 hours

For `O=C(C=Cc1ccc(O)c(O)c1)OCCCc1ccccc1` [compound 4], which “activity in inhibiting NF-κB activation relative to CAPE” value (NF-κB [1]) is on record?
The value was “less active than CAPE”.

What about the “effect of CAPE analogues on TNF-induced NF-κB activation” value (“effect of CAPE analogues” below) (NF-κB [1]) of the same molecule?
Its value is “significant loss of inhibition”.

What does the source list for `COc1cc(CNC(=O)CCCCC=CC(C)C)ccc1O` [capsaicin, 8-methyl-N-vanillyl-6-nonenamid]?
viability at 2 h, 100 µM (in vitro [2]): 99%; viability at 2 h, 200 µM (in vitro [2]): 98%; viability at 2 h, 300 µM (in vitro [2]): 95%; concentration with almost complete inhibition of TNF-induced NF-κB (NF-κB [3]): 200 µM; concentration with almost complete inhibition of TNF-induced NF-κB (NF-κB [4]): 200 µM; TNF-mediated degradation of IκBa (IκBa [5]): abolished; appearance of TNF-mediated slower-migrating band of IκBa (IκBa [5]): abolished; level of cytoplasmic IκBa, capsaicin alone (IκBa [5]): remained unaffected; TNF-induced migration of p65 into the nucleus (p65 [6]): did block the TNF-induced migration; level of cytoplasmic p65, capsaicin alone (p65 [6]): remained unaffected; migration of p65 protein into the nucleus, capsaicin by itself (p65 [6]): did not induce this migration; level of c-Rel protein in cytosolic fraction (c-Rel): neither capsaicin by itself or in combination with TNF had any effect; level of p50 protein in cytosolic fraction (p50): neither capsaicin by itself or in combination with TNF had any effect; NF-κB activation mediated through okadaic acid (NF-κB [7]): inhibited only partially; phorbol myristate acetate-induced activation of NF-κB (NF-κB [7]): completely blocked; ability of NF-κB to bind to the DNA, deoxycholate-treated cytoplasmic extracts from capsaicin-exposed cells (NF-κB [8]): did not modify; ability of NF-κB to bind to the DNA, nuclear extracts exposed to capsaicin after TNF treatment (NF-κB [8]): did not modify; NF-κB activation on co-incubation with TNF (NF-κB [9]): did not block NF-κB activation; activation of NF-κB by 10 nM TNF (NF-κB [9]): completely inhibited; activation of NF-κB by the substance itself (NF-κB [9]): did not activate NF-κB; concentration that inhibited most of the activation induced by TNF (NF-κB [9]): 200 to 300 µM; pre-incubation time for maximum inhibition of the response to TNF (NF-κB [9]): 120 min; TNF-enhanced CAT activity, pIκBCAT-transfected cells [10]: reduced significantly

Which “TNF-mediated activation of NF-κB” value (NF-κB [11]) does the source give for `C=C(C)[C@]12C[C@@H](C)[C@@]34O[C@](Cc5ccccc5)(O[C@@H]1[C@@H]3C=C(COC(=O)Cc1ccc(O)c(OC)c1)C[C@]1(O)C(=O)C(C)=C[C@@H]41)O2` [resiniferatoxin] here?
Its value is “completely inhibited”.

What about the “activation of NF-κB by the substance itself” value (NF-κB [11]) of the same molecule?
The value was “did not activate NF-κB”.

What about the “concentration sufficient for maximum inhibition of the TNF response” value (NF-κB [11]) of the same molecule?
Its value is 40 µM.

And the “potency relative to capsaicin” value (NF-κB [11])?
The value was “approximately 8 fold”.

For `O=C(C=Cc1ccc(O)c(O)c1O)OCCc1ccccc1` [compound 3], which “activity in inhibiting NF-κB activation relative to CAPE” value (NF-κB [1]) is on record?
The value was “less active than CAPE”.

What about the “effect of CAPE analogues” value (NF-κB [1]) of the same molecule?
The value was “loss of potency”.

With `O=C(C=Cc1cc(O)ccc1O)OCCc1ccccc1` [compound 1] as the molecule, how does the “activity in inhibiting NF-κB activation relative to CAPE” value (NF-κB [1]) read?
Its value is “as active as CAPE”.

What about the “effect of CAPE analogues” value (NF-κB [1]) of the same molecule?
The value was “increased the potency of inhibition”.

What does the source list for `O=C(/C=C/c1ccc(O)c(O)c1)OCCc1ccccc1` [CAPE, caffeic acid (3,4-dihydroxy cinnamic acid) phenethyl ester]?
TNF-induced appearance of p65 in the nucleus (p65 [12]): blocked; cytoplasmic pool of p65 (p65 [12]): none of the treatments altered significantly; TNF-induced rate of degradation of IκBa (IκBa [13]): did not affect significantly; cytoplasmic pool of IκBa, substance alone (IκBa [13]): no effect; resynthesis of IκBa after TNF (IκBa [13]): did delay its resynthesis; CAPE-induced inhibition of NF-κB activation in the presence of reducing agents (NF-κB [1]): reversed completely; activation of NF-κB by the substance alone (NF-κB [1]): No activation; concentration with maximum effect on TNF-dependent activation of NF-κB (NF-κB [1]): 25 µg/mL; inhibition of TNF-dependent activation of NF-κB (NF-κB [1]): inhibited the TNF-dependent activation of NF-κB in a dose-dependent manner; kinetics of inhibition of TNF response: cotreatment with TNF (NF-κB [1]): not effective; kinetics of inhibition of TNF response: pretreatment (NF-κB [1]): inhibited only when the cells were pretreated; viability (in vitro [14]): > 98%; activation of NF-κB induced by H2O2 (NF-κB [15]): completely blocked; activation of NF-κB induced by ceramide (NF-κB [15]): completely blocked; activation of NF-κB induced by okadaic acid (NF-κB [15]): completely blocked; activation of NF-κB induced by phorbol myristate acetate (NF-κB [15]): completely blocked; DNA-binding ability of TFII D (TFII D): did not inhibit; binding of NF-κB to DNA, deoxycholate-treated cytoplasmic extracts (NF-κB [16]): interfered with the binding of NF-κB proteins to DNA; binding of NF-κB to DNA, nuclear extracts from TNF-preactivated cells (NF-κB [16]): prevented NF-κB from binding to DNA; DNA-binding ability of Oct-1 (Oct-1): did not inhibit; DNA-binding ability of AP-1 (AP-1): did not inhibit

For `COc1ccc(C=CC(=O)OCCc2ccccc2)cc1OC` [compound 2], which “activity in inhibiting NF-κB activation relative to CAPE” value (NF-κB [1]) is on record?
Its value is “less active than CAPE”.
